{"source": "paper PMC12372887", "about": "“Mechanism and cellular actions of the potent AMPK inhibitor BAY-3827” (Science Advances, 2025)", "key": {"mouse primary adipocytes [1]": {"tested_on": "mouse primary adipocytes", "assay": "Glucose uptake of primary adipocytes", "format": "cell-based", "conditions": "varying doses"}, "mouse primary adipocytes [2]": {"tested_on": "mouse primary adipocytes", "assay": "Immunoblot of signaling in primary adipocytes", "format": "cell-based", "protocol": "Epidydimal adipose tissue excised from mice was digested with collagenase (1 mg/ml) in Krebs-Ringer medium (120 mM NaCl, 4.7 mM KCl, 1.2 mM KH2PO4, and 1.2 mM MgSO4) containing 25 mM Hepes (pH 7.4), 200 nM adenosine, 2 mM glucose, and 3% (w/v) bovine serum albumin (BSA) (KRH buffer) at 37°C in a shaking incubator. Adipocytes were isolated by filtering and washing in KRH buffer. For preparation of protein extracts for Western blot, adipocyte suspensions [0.7 to 1 ml of 10% (v/v) cells] were preincubated with BAY-3827 or BAY-974 compounds or 0.1% DMSO for 1 hour at 37°C in a shaking (80 rpm) water bath followed by either 1 hour of incubation with 10 μM MK-8722 or 30 min with 0.1 nM insulin (Novo Nordisk) in KRH buffer, as indicated in the figure legends. […] Lysates were centrifuged at 13,000g for 15 min (4°C), and supernatant protein concentration was determined by the Bradford assay. […]\nFor adipocyte experiments, cell lysates (25 μg protein) were heated at 95°C for 3 min in LDS sample buffer, subjected to polyacrylamide gel electrophoresis on precast Novex gradient gels (Thermo Fisher Scientific) and electrotransferred to nitrocellulose membranes. […] Luminescence signals were visualized in a ChemiDoc XRS+ (Bio-Rad) and quantified by densitometry using the software Image LabTM 5.1 (Bio-Rad). […]"}}}
{"compound": "CCc1ccccc1C(=O)Nc1n[nH]c2c(C)c(F)c(C3C(C#N)=C(C)N(C)C(C)=C3C#N)cc12", "note": "[BAY-3827, N-[5-(3,5-dicyano-1,2,6-trimethyl-4H-pyridin-4-yl)-6-fluoro-7-methyl-1H-indazol-3-yl]-2-ethylbenzamide]", "values": [{"measurement": "basal and insulin-stimulated glucose uptake", "setting": "mouse primary adipocytes [1]", "result": "not significantly affected"}, {"measurement": "basal and insulin-stimulated phosphorylation of Akt and TBC1D4", "setting": "mouse primary adipocytes [2]; 10 μM", "result": "not significantly affected"}, {"measurement": "Raptor phosphorylation", "setting": "mouse primary adipocytes [2]; varying doses, irrespective of MK-8722", "result": "dose-dependent reduction"}]}
